From patent publication US12059682B2, “Method for isolation and morphological analysis of cells” (EzDiaTech Inc., priority 2018, dated 2024)
Values after ≈ are worked out from the molar mass of the structure shown.

How the values were obtained:
[1] = test system: Escherichia coli (E. coli) ATCC 25922; test: Rapid antibiotic susceptibility test with microwell-patterned hydrogel in 96 well plate, time-lapse imaging; assay type: cell-based
Experimental: (§1) FIG. 2 is a schematic diagram illustrating a technique for dissociating cell colonies into cells at the level of individual cells and continuously observing the morphological changes of the isolated single cells by utilizing a hydrogel structure according to one embodiment of the present disclosure. Referring to (a) of FIG. 2, a conventional 96 well plate is prepared, and thereafter, a dried microwell-patterned hydrogel is inserted into each well. Referring next to (b) of FIG. 2, a cell culture medium containing bacterial cells, nutrients and antibiotics is introduced into each well containing the dry microwell-patterned hydrogel. At the initial stage of introduction, the bottom microwells of the microwell-patterned hydrogel are not yet seated on the base of the well and the microwell-patterned hydrogel is slightly floating. Thus, the bacterial cells are free to move in and out of each microwell pattern.
(§2) Referring to (c) of FIG. 2, several or tens of minutes after the introduction, the microwell-patterned hydrogel swells and approaches the inner wall of the well. As a result, the top of the microwell-patterned hydrogel is in close contact with the inner sidewall of the well and the bottom of the microwell-patterned hydrogel is seated on and remains attached to the base of the well. At this time, the individual bacterial cell entering the space of each bottom microwell pattern of the microwell-patterned hydrogel is not free to move any further in and out of the microwell pattern and is isolated in the microwell-patterned area due to the pressure of the swollen hydrogel. In a state in which the hydrogel is fully expanded, continuous bacterial morphological changes can be observed after several hours by time-lapse imaging through an objective lens of the optical measurement system. As a result, time-lapse images of the individual bacterial cells can be obtained.
(§3) In the case of the Streptomyces atratus (spore-type actinomycetes) cultures, the final cell concentration of the wells was controlled at 7.5×10^7 CFU/mL with tryptic soy broth (TSB, Sparks, MD) and growth was at 28° C. […] After that, 227.5 μL (91% v/v) of Mueller-Hinton broth (MHB, Fluka Analytical), 2.5 μL (1% v/v) of the antibiotics, and 20 μL (8% v/v) of bacterial cells were mixed and growth was monitored at 37° C.
(§4) In this example, the Clinical Laboratory Standard Institute (CLSI) standard strains, Escherichia coli (E. coli) ATCC 25922 and Staphylococcus aureus (S. aureus) ATCC 29213 were tested with various concentrations of ampicillin and chloramphenicol to determine the minimum inhibitory concentration (MIC) values of the antibiotics. […] The cell growth images were recorded every hour for four hours to observe the change in cell number and morphological change to indicate growth.

[2] = test system: Staphylococcus aureus (S. aureus) ATCC 29213; test: as above; assay type: cell-based
Experimental: as §1, §2, §3, §4

[3] = test system: methicillin-resistant Staphylococcus aureus (MRSA); test: Rapid antibiotic susceptibility test with microwell-patterned hydrogel structures, running time 4 hours; assay type: cell-based; conditions: rapid method, running time 4 hours, read-out: minimum inhibitory concentration (MIC)
Experimental: In the case of the Streptomyces atratus (spore-type actinomycetes) cultures, the final cell concentration of the wells was controlled at 7.5×10^7 CFU/mL with tryptic soy broth (TSB, Sparks, MD) and growth was at 28° C. For the E. coli ATCC 25922, Staphylococcus aureus ATCC 29213, and methicillin resistant Staphylococcus aureus cultures, the initial concentration of bacterial cells injected into each well was set to 3×10^8 CFU/mL with Mueller-Hinton broth (MHB, Fluka Analytical). In order to adjust the concentration of antibiotics, ampicillin (Sigma-Aldrich) and chloramphenicol (Sigma-Aldrich), a two-fold serial dilution method was used. After that, 227.5 μL (91% v/v) of Mueller-Hinton broth (MHB, Fluka Analytical), 2.5 μL (1% v/v) of the antibiotics, and 20 μL (8% v/v) of bacterial cells were mixed and growth was monitored at 37° C.

[4] = test system: methicillin-resistant Staphylococcus aureus (MRSA); test: Conventional antibiotic susceptibility test using turbidity, running time 18-24 hours; assay type: cell-based; conditions: conventional method using turbidity, running time 18-24 hours, read-out: minimum inhibitory concentration (MIC)
Source text: Although numerous AST approaches have been studied, molecular and cell culturing systems are typical. The molecular AST method can obtain results quickly, in just a few hours, but can be adopted only in restrictive conditions with analytical equipment such as PCR machine and requires much more research to be used widely in clinical applications. In contrast with the molecular method, the cell culturing system is accurate and most used in the clinical arena, so it is regarded as the standard AST system. The most commonly employed AST process in the cell culturing system is the liquid microdilution method. This traditional AST system requires 18˜24 hours because the liquid microdilution method determines the minimum inhibitory concentration (MIC) of the relevant antibiotics by identifying a change in turbidity of culture wells. The turbidity is indirectly measured by optical density (OD) coming from cell growth, which is proportional to the concentration of the bacterial cells in the culture well. However, the OD evaluation is not sensitive to the bacterial cell population expansion when the concentration of the bacterial cells is conspicuously low. Thus, it needs 18-24 hours to accurately distinguish whether the bacterial cells grow or not under particular concentrations of antibiotics.

E. coli ATCC 25922 = conditions: cited from earlier work
S. aureus ATCC 29213 = conditions: cited from earlier work

| SMILES | concentration at which cells could not divide and showed filamentary growth ([1]; E. coli, optical microscopic images, FIG. 8 (a)) [µg/mL] | concentration at which bacterial cells could not divide or grow ([2]; S. aureus, optical microscopic images, FIG. 8 (b)) [µg/mL] | MIC [3] [µg/mL] | MIC [4] [µg/mL] | CLSI minimum inhibitory concentration (MIC) range (E. coli ATCC 25922) [µg/mL] | CLSI minimum inhibitory concentration (MIC) range (S. aureus ATCC 29213) [µg/mL] | MIC ([1]; Escherichia coli, ATCC25922, 4 h, E. coli ATCC 25922, hydrogel device, images every hour for four hours, 37° C., read-out: minimum inhibitory concentration (MIC)) [µg/mL] | MIC ([2]; Staphylococcus aureus, ATCC29213, 4 h, S. aureus ATCC 29213, hydrogel device, images every hour for four hours, 37° C., read-out: minimum inhibitory concentration (MIC)) [µg/mL] |
| --- | --- | --- | --- | --- | --- | --- | --- | --- |
| CC1(C)S[C@@H]2[C@H](NC(=O)[C@H](N)c3ccccc3)C(=O)N2[C@H]1C(=O)O [ampicillin] | ≥ 2 | ≥ 2 | 64 (≈ 183 µM) | 64 (≈ 183 µM) | 2 to 8 | 0.5 to 2 | – | – |
| O=C(N[C@H](CO)[C@H](O)c1ccc([N+](=O)[O-])cc1)C(Cl)Cl [chloramphenicol] | – | – | – | – | 2 to 8 | 2 to 8 | 8 (≈ 24.8 µM) | 4 (≈ 12.4 µM) |
